The record followed here is ChEMBL document CHEMBL1201862, “PubChem BioAssay data set” (2004).

Common to all, as to assay: NCI-60 cell line screen, 48 h
Assay [1] relates to OVCAR-4.
Assay [2] concerns A549.
For assay [3], the system named is SK-MEL-5.
Assay [4] concerns MOLT-4.
For assay [5], the system named is COLO 205.
The test system of assay [6] is SF-268.
The test system of assay [7] is SK-OV-3.
The subject of assay [8] is RPMI-8226.
Assay [9] concerns SR.
The subject of assay [10] is SN12C.
In assay [11] the test system is 786-0.
The test system of assay [12] is KM12.
The test system of assay [13] is NCI/ADR-RES.
Assay [14] deals with RXF 393.
In assay [15] the test system is NCI-H522.
Assay [16] concerns EKVX.
The subject of assay [17] is TK-10.
For assay [18], the system named is HOP-92.
For assay [19], the system named is OVCAR-5.

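Cells were grown in 96-well plates and exposed to each compound for 48 hours at five concentrations; endpoints were interpolated linearly between bracketing concentrations, or set to the highest concentration if not reached. The concentration for 50% growth inhibition is given as GI50.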 Activity calls are given as the source filed them. No stated cut-off is given here; in the data, active = GI50 up to about 1.1 µM and inactive = higher.

Take `OC(CC(O)(C(F)(F)F)C(F)(F)F)C(O)c1ccco1` (stereo not drawn): the GI50 in assay [1], in assay [2], in assay [3], in assay [4], in [5] and in assay [6] was > 10 µM (inactive) throughout. Moreover, the GI50 in assay [7], in [8], in [9], in [10], in assay [11] and in assay [12] was > 10 µM (inactive) throughout. In addition, the GI50 in [13], in [14], in assay [15], in [16] and in assay [17] was > 10 µM (inactive) throughout.
For the compound `O=C(N/C(=C\c1ccc2c(c1)OCO2)c1nc2ccccc2[nH]1)c1ccccc1`, the GI50 is 19.7 µM (inactive) in [1]; 35.2 µM (inactive) in assay [2]; 16 µM (inactive) in assay [3]; 20.2 µM (inactive) in assay [4]; 25.1 µM (inactive) in assay [5]; 38.2 µM (inactive) in assay [6]. Moreover, the GI50 is 35.6 µM (inactive) in [7]; 32.2 µM (inactive) in assay [8]; 21.9 µM (inactive) in [9]; 18.8 µM (inactive) in [18]; 30.2 µM (inactive) in assay [10]; 59.2 µM (inactive) in [11]. For the same compound, the GI50 was 37.6 µM (inactive) in assay [19]; 32.7 µM (inactive) in [12]; 24.7 µM (inactive) in assay [14]; 14.7 µM (inactive) in [15]; 41.2 µM (inactive) in [16]; 29.2 µM (inactive) in [17].
In the case of `Nc1nc(=O)c(/N=N/c2ccccc2)c(N)[nH]1`, the GI50 was > 100 µM (inactive) in assay [1]; 29.9 µM (inactive) in [2]; 51.8 µM (inactive) in assay [3]; > 100 µM (inactive) in assay [4]; 65 µM (inactive) in assay [5]; 28.1 µM (inactive) in assay [6]. For the same compound, the GI50 in [7] was 60.3 µM (inactive); in [8] it was > 100 µM (inactive); in assay [9] it was > 100 µM (inactive); in assay [18], 22.5 µM (inactive); in assay [10] it was 52.7 µM (inactive); in assay [11] it was 55 µM (inactive). Besides, the GI50 in assay [19] is 41.3 µM (inactive); in [12], 56.2 µM (inactive); in [15] it was 47.4 µM (inactive); in assay [17], 59.8 µM (inactive).
In the case of `O=C(O/N=C1/CCCC/C1=C\c1ccccc1)c1ccccc1`, the GI50 was > 100 µM (inactive) in assay [2]; 0.146 µM (active) in [3]; 24.5 µM (inactive) in [4]; > 100 µM (inactive) in [5]; 33.3 µM (inactive) in [6]; > 100 µM (inactive) in assay [7]. The GI50 in [8] was > 100 µM (inactive); in [9], 43.5 µM (inactive); in assay [18], 63.5 µM (inactive); in [10], > 100 µM (inactive); in [11], > 100 µM (inactive); in [19], > 100 µM (inactive). In addition, the GI50 was 45.3 µM (inactive) in assay [12]; > 100 µM (inactive) in assay [14]; 27.7 µM (inactive) in assay [15]; > 100 µM (inactive) in [16]; > 100 µM (inactive) in assay [17].
As for `CCOC(=O)c1s/c(=N\Nc2nc3ccccc3cc2C2OCCO2)n(Cc2ccccc2)c1C`, the GI50 in assay [1] was > 100 µM (inactive); in assay [2], > 100 µM (inactive); in [3], > 100 µM (inactive); in assay [4], 40.2 µM (inactive); in assay [5] it was > 100 µM (inactive); in assay [6], > 100 µM (inactive). The GI50 was > 100 µM (inactive) in assay [7]; > 100 µM (inactive) in assay [8]; 4.65 µM (inactive) in assay [9]; > 100 µM (inactive) in assay [18]; > 100 µM (inactive) in [10]; > 100 µM (inactive) in assay [11]. Also, the GI50 in assay [19], in [12], in assay [14], in [15], in assay [16] and in assay [17] was > 100 µM (inactive) each time.
With `Cc1cc(N(CCCCl)CCCCl)ccc1/C=N/c1cccc(Cl)c1`, the GI50 is 12.4 µM (inactive) in assay [1]; 12.3 µM (inactive) in [2]; 14.4 µM (inactive) in assay [3]; 4.41 µM (inactive) in [4]; 11.5 µM (inactive) in assay [5]; 12.2 µM (inactive) in [6]. The GI50 was 19.1 µM (inactive) in assay [7]; < 0.01 µM (active) in assay [8]; 11.8 µM (inactive) in assay [9]; 16.7 µM (inactive) in assay [10]; 14.2 µM (inactive) in assay [11]; 1.2 µM (inactive) in [19]. The GI50 in [12] was 13.5 µM (inactive); in [13] it was 14.2 µM (inactive); in [14] it was 11.5 µM (inactive); in assay [15], 17.5 µM (inactive); in assay [17], 10.6 µM (inactive).
For the compound `N#Cc1nc(Nc2ccc(Cl)cc2)sc1N`, the GI50 in [1] is 24 µM (inactive); in assay [2], 10.7 µM (inactive); in assay [3], 2.61 µM (inactive); in [4], 1.52 µM (inactive); in [5], 6.68 µM (inactive); in [6] it was 5.47 µM (inactive). In addition, the GI50 in [7] is 21.5 µM (inactive); in [8] it was 2.34 µM (inactive); in assay [9], 1.51 µM (inactive); in [18] it was 20.9 µM (inactive); in assay [10], 4.54 µM (inactive); in assay [11] it was 8.43 µM (inactive). The GI50 in assay [19] is 12.1 µM (inactive); in [12], 13.8 µM (inactive); in assay [15], 3.01 µM (inactive); in assay [16] it was 24.2 µM (inactive); in [17], 23 µM (inactive).
Regarding `O=C(CC(C(=O)c1cccs1)c1cccs1)c1ccccc1Cl` (stereo not drawn), the GI50 was > 100 µM (inactive) in [1]; > 100 µM (inactive) in assay [2]; > 100 µM (inactive) in assay [3]; 46.1 µM (inactive) in assay [4]; 54 µM (inactive) in [5]; > 100 µM (inactive) in [6]. Further, the GI50 in assay [7] is > 100 µM (inactive); in assay [8], 50.1 µM (inactive); in assay [9], 39.5 µM (inactive); in assay [10], > 100 µM (inactive); in assay [11], > 100 µM (inactive); in assay [19], > 100 µM (inactive). The GI50 in assay [12] was 93.1 µM (inactive); in assay [13], 33.5 µM (inactive); in assay [16], 49.8 µM (inactive); in [17] it was > 100 µM (inactive).
Take `CC(C)(C)C1=C(Br)C(O)(C(C)(C)C)OP1(=O)c1ccccc1` (stereo not drawn): the GI50 in assay [1], in assay [2], in assay [3], in assay [4], in assay [5] and in assay [6] was > 100 µM (inactive) each time. For the same compound, the GI50 in assay [7], in [18], in assay [10], in assay [11], in assay [19] and in [12] was > 100 µM (inactive) in each case. For the same compound, the GI50 in assay [13], in assay [14], in assay [15], in assay [16] and in assay [17] was > 100 µM (inactive) throughout.
Consider `N#CCC(=O)N/N=C(/C(=O)Nc1ccccc1)C1C(=O)N(c2ccccc2)N=C1N` (stereo not drawn), for which the GI50 in assay [1], in [2], in assay [3], in assay [4], in assay [5] and in [6] was > 100 µM (inactive) throughout. Also, the GI50 in assay [7], in [8], in assay [9], in assay [18], in [10] and in [11] was > 100 µM (inactive) each time. For the same compound, the GI50 in [19], in [12], in [14], in assay [15], in assay [16] and in assay [17] was > 100 µM (inactive) in each case.
Turning to `C/C(=N\NS(=O)(=O)c1ccccc1)c1ccc[n+]([O-])n1`, the GI50 was 49.3 µM (inactive) in [1]; > 100 µM (inactive) in assay [2]; > 100 µM (inactive) in assay [3]; 36.4 µM (inactive) in [4]; > 100 µM (inactive) in [6]; > 100 µM (inactive) in assay [7]. Moreover, the GI50 in [8] is 28.1 µM (inactive); in assay [9] it was 32.3 µM (inactive); in assay [18] it was 39 µM (inactive); in assay [10], > 100 µM (inactive); in [11], > 100 µM (inactive); in assay [19], > 100 µM (inactive). Also, the GI50 was > 100 µM (inactive) in [12], 25.6 µM (inactive) in assay [15] and > 100 µM (inactive) in assay [16].
With `Cc1c2ccnc(C(N)=O)c2c(C)c2c1[nH]c1ccccc12`, the GI50 was 9.31 µM (inactive) in [1]; 5.47 µM (inactive) in assay [2]; 6.18 µM (inactive) in assay [3]; 2.72 µM (inactive) in assay [4]; 5.07 µM (inactive) in assay [5]; 5.46 µM (inactive) in assay [6]. Further, the GI50 in assay [7] is 7.66 µM (inactive); in [8], 5.82 µM (inactive); in [10] it was 4.13 µM (inactive); in assay [11], 5.08 µM (inactive); in assay [19], 18.8 µM (inactive); in assay [12] it was 6.07 µM (inactive). In addition, the GI50 was 5.65 µM (inactive) in [13]; 4.19 µM (inactive) in assay [14]; 7.59 µM (inactive) in assay [15]; 10.6 µM (inactive) in assay [16]; 5.55 µM (inactive) in assay [17].
